Measured values from patent US20070155802A1, “Fungicide composition comprising an arylamidine derivative and known fungicide compounds” (priority 2004, published 2007).

Tests used:
[1] = tested on: Wheat Powdery Mildew (Erysiphe graminis or blumeria graminis); assay: Open field trial on wheat, wheat powdery mildew, natural contamination; type: in vivo; details: 20 days after application 2, BBCH73
Method: (§1) They are intended to give an illustration of the efficacy of the composition according to the invention on several cereal diseases, in particular a composition combining compound (A), having as chemical name N-ethyl-N-methyl-N′-[4-(chloro-3-trifluoromethylphenoxy)-2,5-xylyl]formamidine, with a fungicide compound of the triazole type, namely prothioconazole. The trials on cereals were carried out in an open field.
(§2) The objective of these field trials is therefore to test the efficacy of compounds (A), alone at 100 g/ha; 125 g/ha and 150 g/ha in combination with prothioconazole at 150 g a.i./ha; representing a class of fungicide compounds. Powdery mildew (Erysiphe graminis or blumeria graminis) and Septoria diseases (Mycosphaerella graminicola or Septoria tritici) are the principal diseases treated.
(§3) The products tested are therefore • N-ethyl-N-methyl-N′-[4-(chloro-3-trifluorométhylphénoxy)-2,5-xylyl]-formamidine as compound (A) at 100 g/ha; 125 g/ha and 150 g/ha as an EC type formulation at 150 g/l; • prothioconazole as compound (B) at 150 g/ha as a formulation at 250 g/l; • compound (A) and prothioconazole combination at 100+150 g/ha as a fresh preparation; • compound (A) and prothioconazole combination at 125+150 g/ha as a fresh preparation; • compound (A) and prothioconazole combination at 150+150 g/ha as a fresh preparation; • the reference product is a mixture of epoxyconazole and pyraclostrobin (Opera® 1,51/ha recommended on Septoria tritici).
(§4) Each trial comprises 3 repeats.
(§5) Untreated control plots are included in the experimental design in order to measure the severity of the diseases.
The trials were conducted under natural contamination conditions. The equipment for application of the different active ingredients is a constant compressed air pressure back sprayer. The spray nozzles have slits. […]
The results were measured 20 days after the second application of the products onto wheat and are presented in table 2; for Erysiphe graminis, assessment 20 days after application 2 at stage BBCH73 by observations of Flag leaf-Flag-1-Flag-2.

[2] = tested on: Wheat Leaf-spot (Septoria tritici or Mycosphaerella graminicola); assay: Open field trial on wheat, wheat leaf-spot, natural contamination; type: in vivo; details: 30 days after application 2, BBCH73
Method: as §1, §2, §3, §4, §5
The trials were conducted under natural contamination conditions. The equipment for application of the different active ingredients is a constant compressed air pressure back sprayer. The spray nozzles have slits.
The efficacy results were obtained from controls carried out in the field by overall evaluation of the percentage infestation.
The results were measured 30 days after the second application and are presented in table 3; for Septoria tritici, assessment 30 days after application 2 at stage BBCH73 by observations of Flag leaf-Flag-1-Flag-2.

| SMILES | % Efficacy observed (X) ([1]; 125 g ai/Ha) [%] | % Efficacy observed (X) ([1]; 150 g ai/Ha) [%] | % Efficacy observed (X) ([2]; 100 g ai/Ha) [%] | % Efficacy observed (X) ([2]; 125 g ai/Ha) [%] | % Efficacy observed (X) ([2]; 150 g ai/Ha) [%] |
| --- | --- | --- | --- | --- | --- |
| CCN(C)C=Nc1cc(C)c(Oc2ccc(Cl)c(C(F)(F)F)c2)cc1C [Compound A] | 16 | 14 | 17 | 19 | 24 |
| OC(Cc1ccccc1Cl)(Cn1nc[nH]c1=S)C1(Cl)CC1 (stereo not shown) [prothioconazole, reference compound] | – | 71 | – | – | 69 |
